Experimental findings from ChEMBL document CHEMBL3879885 (2006) are described below.

For orientation: pEC50 means −log10 of the EC50, conventionally taken in molar units. Read a high pEC50 as a low EC50.

pEC50: −log10 of the molar value.

Potassium voltage-gated channel subfamily A member 2, sequence (P16389 whole entry): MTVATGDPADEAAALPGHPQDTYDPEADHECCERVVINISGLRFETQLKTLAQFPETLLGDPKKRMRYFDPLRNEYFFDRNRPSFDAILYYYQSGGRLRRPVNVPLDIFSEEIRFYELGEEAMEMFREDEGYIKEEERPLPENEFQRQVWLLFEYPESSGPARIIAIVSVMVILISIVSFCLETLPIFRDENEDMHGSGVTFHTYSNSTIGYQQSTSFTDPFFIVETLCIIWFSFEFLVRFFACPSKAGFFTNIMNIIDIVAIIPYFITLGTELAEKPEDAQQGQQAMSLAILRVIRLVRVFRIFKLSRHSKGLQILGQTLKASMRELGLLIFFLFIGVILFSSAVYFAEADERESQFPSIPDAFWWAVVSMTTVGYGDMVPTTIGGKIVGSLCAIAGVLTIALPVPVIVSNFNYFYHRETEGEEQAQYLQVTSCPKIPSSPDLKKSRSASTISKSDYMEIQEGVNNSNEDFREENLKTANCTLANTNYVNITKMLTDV

One assay addresses Potassium voltage-gated channel subfamily A member 2 (Homo sapiens, UniProt P16389). Description: Inhibition of Kv1.2 (unknown origin).
Settings: not given
`O=c1ccc2c(OCCCCOc3ccccc3)c3ccoc3cc2o1` gave a negative-log EC50 (pEC50) of 6.60.

The target of a further assay is T1, Potassium voltage-gated channel subfamily A member 3 (Homo sapiens, UniProt P22001). Description: Inhibition of Kv1.3 (unknown origin).
T1 sequence (P22001 whole entry): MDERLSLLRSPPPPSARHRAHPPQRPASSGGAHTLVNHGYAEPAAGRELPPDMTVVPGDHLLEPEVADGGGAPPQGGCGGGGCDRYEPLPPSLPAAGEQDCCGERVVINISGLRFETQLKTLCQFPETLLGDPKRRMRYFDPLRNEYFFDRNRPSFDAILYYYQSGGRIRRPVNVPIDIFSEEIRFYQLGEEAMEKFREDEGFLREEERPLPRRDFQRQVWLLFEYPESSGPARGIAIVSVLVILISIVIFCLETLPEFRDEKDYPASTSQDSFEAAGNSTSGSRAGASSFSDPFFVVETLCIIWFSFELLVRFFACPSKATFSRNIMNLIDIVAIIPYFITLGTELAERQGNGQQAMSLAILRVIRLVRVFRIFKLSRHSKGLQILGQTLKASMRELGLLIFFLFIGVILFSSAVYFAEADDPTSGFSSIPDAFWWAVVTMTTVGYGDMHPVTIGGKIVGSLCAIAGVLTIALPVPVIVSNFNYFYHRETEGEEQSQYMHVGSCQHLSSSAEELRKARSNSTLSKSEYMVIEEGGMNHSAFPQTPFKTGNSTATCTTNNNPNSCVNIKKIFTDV
Settings: not given
The class given is single protein.
Molecule `Cc1nnc(SCCCCOc2c3ccoc3cc3oc(=O)ccc23)s1` had a pEC50 of 6.76.

In turn, `N#CCCCCOc1c2occc2cc2ccc(=O)oc12` gave a pEC50 of 5.30. This pEC50 lies 1.46 log units lower than the previous one.

`Cc1ccc(OCCCCOc2c3ccoc3cc3oc(=O)ccc23)c([N+](=O)[O-])c1` showed a pEC50 of 6.15.

`O=c1ccc2c(OCCCCOc3cccc(C(F)(F)F)c3)c3ccoc3cc2o1` gave a pEC50 of 7.19. Against the preceding molecule, the pEC50 is 1.04 log units higher.

Consider `N#CCCCOc1c2occc2cc2ccc(=O)oc12`, for which the pEC50 is 5.30.

In turn, `COc1cc(OC)cc(OCCCOc2c3ccoc3cc3oc(=O)ccc23)c1` showed a negative logarithm of the EC50 (pEC50) of 7.12.

For the molecule `O=c1ccc2c(OCCCOc3ccc(Cl)cc3)c3ccoc3cc2o1`, the pEC50 was 8.00.

With `O=c1ccc2c(OCCCCCOc3ccccc3)c3ccoc3cc2o1`, the negative-log EC50 (pEC50) was 7.82.

`O=c1ccc2c(OCCOCc3ccccc3)c3ccoc3cc2o1`: the pEC50 was 8.00.

`O=c1ccc2c(OCCCCSc3ncccn3)c3ccoc3cc2o1`: the negative-log EC50 (pEC50) was 7.30.

Turning to `COc1ccc(OCCCCOc2c3ccoc3cc3oc(=O)ccc23)cc1`, the pEC50 was 8.10. Compared with the last molecule, the pEC50 is 0.80 log units higher.

Molecule `COc1cccc(OCCCOc2c3ccoc3cc3oc(=O)ccc23)c1` had a negative logarithm of the EC50 (pEC50) of 7.35.

In turn, `COc1ccc2sc(SCCCCOc3c4ccoc4cc4oc(=O)ccc34)nc2c1` gave a pEC50 of 7.46.

With `O=c1ccc2c(OCCCCOc3ccc(Oc4ccccc4)cc3)c3ccoc3cc2o1`, the pEC50 was 7.80.

Molecule `O=c1ccc2c(OCCCCn3cccn3)c3ccoc3cc2o1` had a pEC50 of 6.35.

Take `N#CCCCOc1c2ccoc2cc2oc(=O)ccc12`: the negative logarithm of the EC50 (pEC50) is 5.30.

In the case of `O=c1ccc2c(OCCCCOCc3ccccc3)c3ccoc3cc2o1`, the negative-log EC50 (pEC50) is 7.31. Against the preceding molecule, the pEC50 is 2.01 log units higher.

In turn, `N#CCCCCOc1c2ccoc2cc2oc(=O)ccc12` showed a negative logarithm of the EC50 (pEC50) of 5.89.

Molecule `Cc1ccc(OCCCCOc2c3ccoc3cc3oc(=O)ccc23)cc1` had a negative-log EC50 (pEC50) of 8.15.

The molecule `COc1cc(OC)cc(OCCCCOc2c3ccoc3cc3oc(=O)ccc23)c1` gave a negative logarithm of the EC50 (pEC50) of 6.92. Against the preceding molecule, the pEC50 is 1.23 log units lower.

For the molecule `CCc1ccc(OCCCCCOc2c3ccoc3cc3oc(=O)ccc23)cc1`, the pEC50 was 7.46. Compared with the last molecule, the pEC50 is 0.54 log units higher.

In turn, `O=c1ccc2c(OCCCOc3ccccc3)c3ccoc3cc2o1` showed a pEC50 of 7.82.

On to `COc1cccc(OCCCCOc2c3ccoc3cc3oc(=O)ccc23)c1`, for which the negative-log EC50 (pEC50) was 7.68. The pEC50 values of the last two molecules are within 0.2 log units of each other.

`O=c1ccc2c(OCCCCOc3cccc4ccccc34)c3ccoc3cc2o1` showed a negative logarithm of the EC50 (pEC50) of 7.70.

Turning to `O=c1ccc2c(OCCCOCc3ccccc3)c3ccoc3cc2o1`, the negative logarithm of the EC50 (pEC50) was 7.30.

As to `O=C(CCCOc1c2ccoc2cc2oc(=O)ccc12)c1ccccc1`, the pEC50 was 7.51. This pEC50 is 0.21 log units higher than that of the molecule before.

Take `CCc1ccc(OCCCOc2c3ccoc3cc3oc(=O)ccc23)cc1`: the negative logarithm of the EC50 (pEC50) was 7.85.

The molecule `CCc1ccc(OCCCCOc2c3ccoc3cc3oc(=O)ccc23)cc1` gave a negative-log EC50 (pEC50) of 7.89. This pEC50 and that of the molecule before are within 0.2 log units of each other.

As to `O=c1ccc2c(OCCCCOc3ccc4ccccc4c3)c3ccoc3cc2o1`, the negative logarithm of the EC50 (pEC50) was 7.92.

Regarding `O=c1ccc2c(OCCCCOc3ccc([N+](=O)[O-])cc3)c3ccoc3cc2o1`, the negative-log EC50 (pEC50) was 8.15.

Molecule `O=c1ccc2ccc(OCCCCOc3c4ccoc4cc4oc(=O)ccc34)cc2o1` gave a negative logarithm of the EC50 (pEC50) of 6.90.

`COc1cc(OC)cc(OCCCCCOc2c3ccoc3cc3oc(=O)ccc23)c1`: the negative-log EC50 (pEC50) was 7.49.

On to `O=c1ccc2c(OCCCCOc3ccc(Cl)cc3)c3ccoc3cc2o1`, for which the pEC50 was 8.30.

A further assay addresses T1, Potassium voltage-gated channel subfamily A member 3. Description: Ratio of IC50 for Kv1.3 in human central memory T cells to IC50 for Kv1.3 in CD4+ MBP-specific multiple sclerosis patient effector memory T lymphocytes stimulated with 3 times MBP. Type of assay: cell-based. The settings on record: T-cell.
`CC[C@H](C)[C@@H]1NC(=O)[C@@H](NC(=O)[C@H](CO)NC(=O)[C@@H](N)CCCNC(=N)N)CSSC[C@@H](C(=O)O)NC(=O)[C@H]([C@@H](C)O)NC(=O)CNC(=O)[C@@H]2CSSC[C@@H]3NC(=O)[C@H](CCC(N)=O)NC(=O)[C@H](Cc4ccccc4)NC(=O)[C@H](C)NC(=O)[C@H]([C@@H](C)O)NC(=O)[C@H](CSSC[C@H](NC(=O)[C@H](Cc4ccccc4)NC(=O)[C@@H](CO)NC(=O)[C@@H](CC(C)C)NC(=O)[C@H](CCCNC(=N)N)NC(=O)[C@H](Cc4ccc(O)cc4)NC(=O)[C@H](CCCCN)NC(=O)[C@H](CCSC)NC(=O)[C@H](CO)NC(=O)[C@H](Cc4cnc[nH]4)NC(=O)[C@H](CCCCN)NC3=O)C(=O)N[C@@H](CCCNC(=N)N)C(=O)N[C@@H](CCCCN)C(=O)N[C@@H]([C@@H](C)O)C(=O)N2)NC(=O)[C@H](CCCNC(=N)N)NC(=O)[C@H](CO)NC(=O)[C@H](CCCCN)NC(=O)[C@@H]2CCCN2C(=O)[C@H]([C@@H](C)CC)NC(=O)[C@H]([C@@H](C)O)NC(=O)[C@H](CC(=O)O)NC1=O`: the Ratio IC50 turned out to be 10.
